Reference: patent publication US4154837A, “(Aminoalkoxy-aryl)-substituted isoquinolinones and naphthydrinones and salts thereof, and hypotensive compositions and methods employing them” (Boehringer Ingelheim GmbH, priority 1977, dated 1979)
Like-named read-outs stand apart in the source and are kept apart here.

Key:
[1] = system: isolated guinea pig auricle; assay: effect on the force of contraction and frequency of the isolated guinea pig auricle; settings: Cavia porcellus, 37° C.; for inhibition at 30 µg/mL: 3.10^-5 gm/ml; for inhibition at 10 µg/mL: 10^-5 gm/ml; for inhibition at 100 µg/mL: 10^-4 gm/ml; for inhibition at 3 µg/mL: 3.10^-6 gm/ml
Method: (2.) effect on the force of contraction and frequency of the isolated guinea pig auricle
In spontaneously beating isolated auricles of guinea pigs, which were kept in carbogen-aerated ([…] +5% CO2) Krebs-Henseleit-solution at a temperature of 37° C., and at predetermined concentrations of the test compounds, the maximum developed tension (isometric force of contraction) and the frequency were measured: […]

in vivo = settings: mouse, mice, observation period 14 days
Method: (3.) determination of acute toxicity
The acute toxicity of the test compounds was determined in mice (observation period: 14 days) after oral or intravenous administration. The LD50 was calculated from the percentage of the animals that dies during the observation period after administration of varying doses: […]

[2] = system: blood circulation of dogs; assay: Effect on blood circulation (arterial blood pressure, heart rate, contractility dp/dt max) in anesthetized dogs; type: in vivo; settings: for Decrease of contractility, duration / inhibition in vivo at 1 mg/kg / inhibition in vivo at 0.25 mg/kg: left ventricle; for inhibition in vivo at 1 mg/kg / inhibition in vivo at 0.25 mg/kg: Canis lupus familiaris, iv, read-out: Decrease of contractility dp/dt max.
Method: (1.) Effect on blood circulation: The blood circulation tests were performed on dogs with a body weight of 19-30 kg under chloralose-urethane-nembutalanesthesia (54+270+10 mg/kg i.v.). After opening the thorax in the 4th left intercostal space, artificial respiration was applied to the animals with room air by means of an Harvard-Respirator. The arterial blood-pressure was measured in an arteria carotis with a Statham-transducer; the heart rate was measured electronically from the sequence of R-peaks of the electrocardiogram. The maximum rate of pressure increase (dp/dt max) in the left ventricle was measured by means of a Konigsberg pressure-receiver and a Grass differentiation amplifier. All parameters were recorded by means of a direct-writer. For inhibition of coagulation the animals were given 10 mgm/kg of potassium polyethylenesulfonate i.v. in 20% of polydiol. The test compounds were intravenously administered to 4-6 dogs per compound.

[3] = read-out: Decrease in frequency
[4] = read-out: Decrease in maximum force of contraction

SMILES | inhibition at 30 µg/mL [1, 3] [%] | inhibition at 30 µg/mL [1, 4] [%] | inhibition at 10 µg/mL [1, 3] [%] | inhibition at 10 µg/mL [1, 4] [%] | LD50 at 336 h (in vivo; iv) [mg/kg] | Decrease in heart rate ([2]; 1.0 mgm/kg i.v.) [beats/min] | Decrease in heart rate, duration ([2]; 1.0 mgm/kg i.v.) [min] | Effect on average arterial blood pressure ([2]; 1.0 mgm/kg i.v.) [mm Hg] | Effect on average arterial blood pressure, duration ([2]; 1.0 mgm/kg i.v.) [min] | Decrease of contractility, duration ([2]; 1.0 mgm/kg i.v.) [min] | inhibition in vivo at 1 mg/kg ([2]; 1.0 mgm/kg i.v.) [%] | also measured
COc1ccc2cc(-c3ccc(OCC(O)CNC(C)(C)C)cc3)n(C)c(=O)c2c1 (stereo not drawn) [A, 2-methyl-3-[4-(2-hydroxy-3-tert. butylamino-propoxy)-phenyl]-7-methoxy-isoquinolin-1 (2H)-one] | 30 | 82 | 23 | 50 | 62 | 29 ± 15 | 36 | -20 ± 2 | 50 | 44 | 50 ± 10 | LD50 at 336 h (in vivo; po): 460 mg/kg
COc1ccc2cc(-c3ccc(OCC(O)CNC(C)C)c(OC)c3)n(C)c(=O)c2c1 (stereo not drawn) [G, 2-methyl-3-[3-methoxy-4-(2-hydroxy-3-isopropylamino-propoxy)-phenyl]-7-methoxy-isoquinolin-1 (2H)-one] | 37 | 48 | 22 | 35 | – | – | – | – | – | – | – | Decrease in heart rate ([2]; 0.25 mgm/kg i.v.): 37 ± 5 beats/min; Decrease in heart rate, duration ([2]; 0.25 mgm/kg i.v.): 54 min; Effect on average arterial blood pressure ([2]; 0.25 mgm/kg i.v.): -3 ± 2 mm Hg; Effect on average arterial blood pressure, duration ([2]; 0.25 mgm/kg i.v.): 20 min; Decrease of contractility, duration ([2]; 0.25 mgm/kg i.v.): 48 min; inhibition in vivo at 0.25 mg/kg ([2]; 0.25 mgm/kg i.v.): 48 ± 6%
COc1ccc(-c2cc3ccc(OC)cc3c(=O)n2C)c(OCC(O)CNC(C)(C)C)c1 (stereo not drawn) [D, 2-methyl-3-[2-(2-hydroxy-3-tert. butylamino-propoxy)-4-methoxy-phenyl]-7-methyoxy-isoquinoline-1 (2H)-one-oxalate] | 40 | 64 | – | – | – | – | – | – | – | – | – | Decrease in heart rate ([2]; 0.25 mgm/kg i.v.): 15 ± 5 beats/min; Decrease in heart rate, duration ([2]; 0.25 mgm/kg i.v.): 27 min; Effect on average arterial blood pressure ([2]; 0.25 mgm/kg i.v.): -6 ± 3 mm Hg; Effect on average arterial blood pressure, duration ([2]; 0.25 mgm/kg i.v.): 24 min; Decrease of contractility, duration ([2]; 0.25 mgm/kg i.v.): 28 min; inhibition in vivo at 0.25 mg/kg ([2]; 0.25 mgm/kg i.v.): 36 ± 13%
COc1ccc2cc(CCc3ccc(OCC(O)CNC(C)C)cc3)n(C)c(=O)c2c1 (stereo not drawn) [H, 2-methyl-3-[4-(2-hydroxy-3-isopropylamino-propoxy)-phenethyl]-7-methoxy-isoquinolin-1 (2H)-one] | – | – | – | – | – | 34 ± 10 | 47 | -25 ± 15 | 20 | 47 | 53 ± 13 | –
COc1cc2cc(-c3ccc(OCC(O)CNC(C)(C)C)cc3)n(C)c(=O)c2cc1OC (stereo not drawn) [E, 2-methyl-3-[4-(2-hydroxy-3-tert. butylamino-propoxy)-phenyl]-6,7-dimethoxy-isoquinolin-1 (2H)-one] | 31 | 54 | – | – | – | 25 ± 6 | 51 | -18 ± 11 | 11 | 51 | 52 ± 8 | inhibition at 100 µg/mL [1, 3]: 46%; inhibition at 100 µg/mL [1, 4]: 72%
COc1cc2cc(-c3ccc(OCC(O)CNC(C)C)cc3)n(C)c(=O)c2cc1OC (stereo not drawn) [F, 2-methyl-3-[4-(2-hydroxy-3-isopropylamino-propoxy)-phenyl]-6,7-dimethoxy-isoquinolin-1 (2H)-one] | 29 | 43 | 22 | 30 | – | 12 ± 6 | 31 | -7 ± 3 | 17 | 43 | 33 ± 6 | –
COc1ccc2cc(-c3ccccc3OCC(O)CNC(C)C)n(C)c(=O)c2c1.O=C(O)C(=O)O (stereo not drawn) [B, 2-methyl-3-[2-(2-hydroxy-3-isopropylamino-propoxy)-phenyl]-7-methoxy-isoquinolin-1 (2H)-one-oxalate] | – | – | – | – | 47 | 19 ± 6 | 50 | -24 ± 2 | 41 | 47 | 51 ± 7 | –
COc1ccc(-c2cc3ccc(OC)cc3c(=O)n2C)c(OCC(O)CNC(C)C)c1.O=C(O)C(=O)O (stereo not drawn) [C, 2-methyl-3-[2-(2-hydroxy-3-isopropylamino-propoxy)-4-methoxy-phenyl]-7-methoxy-isoquinolin-1 (2H)-one-oxalate] | – | – | 29 | 29 | 50 | 38 ± 2 | 50 | -17 ± 3 | 40 | 50 | 53 ± 6 | inhibition at 3 µg/mL [1, 3]: 15%; inhibition at 3 µg/mL [1, 4]: 17%; LD50 at 336 h (in vivo; po): 500 mg/kg
